Results: PubChem BioAssay AID256 (DTP/NCI, 2004)
“And” between values parts separate entries of the source, which are not always exact repeats. Equal entries are not always repeated. Inconclusive results and toxic doses are left out.

System: CD2F1 mice, L1210 leukemia ip, survival T/C
Experiment: NCI In Vivo Anticancer Drug Screen. Data for tumor model L1210 Leukemia (intraperitoneal) in CD2F1 (CDF1) mice
Settings: higher = longer survival
How it was run: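 Each value reflects a quotient of treated over vehicle control outcomes in mice with a transplanted tumor.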

[1] = endpoint: mean survival time, dose: 6.25 mg/kg/injection, schedule: Q04DX003 (ip), vehicle: saline
[2] = endpoint: mean survival time, dose: 12.5 mg/kg/injection, schedule: Q04DX003 (ip), vehicle: saline
[3] = endpoint: mean survival time, dose: 25.0 mg/kg/injection, schedule: Q04DX003 (ip), vehicle: saline
[4] = endpoint: mean survival time, dose: 100.0 mg/kg/injection, schedule: Q04DX003 (ip), vehicle: saline
[5] = endpoint: mean survival time, dose: 200.0 mg/kg/injection, schedule: Q04DX003 (ip), vehicle: saline
[6] = endpoint: mean survival time, dose: 50.0 mg/kg/injection, schedule: Q01DX009 (ip), vehicle: saline
[7] = endpoint: mean survival time, dose: 100.0 mg/kg/injection, schedule: Q01DX009 (ip), vehicle: saline
[8] = endpoint: mean survival time, dose: 100.0 mg/kg/injection, schedule: Q01DX009 (ip), vehicle: saline with Tween-80
[9] = endpoint: mean survival time, dose: 100.0 mg/kg/injection, schedule: Q04DX003 (ip), vehicle: saline with Tween-80
[10] = endpoint: mean survival time, dose: 200.0 mg/kg/injection, schedule: Q01DX009 (ip), vehicle: saline with Tween-80
[11] = endpoint: mean survival time, dose: 200.0 mg/kg/injection, schedule: Q04DX003 (ip), vehicle: saline with Tween-80
[12] = endpoint: mean survival time, dose: 400.0 mg/kg/injection, schedule: Q01DX009 (ip), vehicle: saline with Tween-80
[13] = endpoint: mean survival time, dose: 400.0 mg/kg/injection, schedule: Q04DX003 (ip), vehicle: saline with Tween-80
[14] = endpoint: mean survival time, dose: 75.0 mg/kg/injection, schedule: Q01DX001 (ip), vehicle: saline

## Cc1cc(=O)[nH]c(=S)[nH]1.[Pd]
endpoint: mean survival time, dose: 3.12 mg/kg/injection, schedule: Q04DX003 (ip), vehicle: saline
  T/C: 103 % of control
[1]
  T/C: 108 % of control
[2]
  T/C: 105 % of control
[3]
  T/C: 100 % of control
endpoint: mean survival time, dose: 50.0 mg/kg/injection, schedule: Q04DX003 (ip), vehicle: saline
  T/C: 102 % of control
[4]
  T/C: 102 % of control
[5]
  T/C: 100 % of control

## CN1CC2C(O)CCC1CC2O (configuration not stated)
endpoint: mean survival time, dose: 100.0 mg/kg/injection, schedule: Q04DX002 (ip), vehicle: saline
  T/C: 105 % of control
endpoint: mean survival time, dose: 200.0 mg/kg/injection, schedule: Q04DX002 (ip), vehicle: saline
  T/C: 90 % of control

## CCOC1NC(=O)Oc2ccccc21 (configuration not stated)
endpoint: median survival time, dose: 50.0 mg/kg/injection, schedule: Q01DX005 (ip), vehicle: Klucel (hydroxypropylcellulose) (HPC)
  T/C: 100 % of control
endpoint: median survival time, dose: 100.0 mg/kg/injection, schedule: Q01DX005 (ip), vehicle: Klucel (hydroxypropylcellulose) (HPC)
  T/C: 95 % of control
endpoint: median survival time, dose: 200.0 mg/kg/injection, schedule: Q01DX005 (ip), vehicle: Klucel (hydroxypropylcellulose) (HPC)
  T/C: 108 % of control

## BrCC[CH2][Sn]([Br])([Br])[Br]
[6]
  T/C: 103 % of control
[7]
  T/C: 91 % of control
endpoint: mean survival time, dose: 200.0 mg/kg/injection, schedule: Q01DX009 (ip), vehicle: saline
  T/C: 95 % of control

## COC(=O)/C=C/C(=O)NC(N)=O
[1]
  T/C: 91 % of control
[2]
  T/C: 113 % of control
[3]
  T/C: 100 % of control

## O=C(O)/C=C(/C(=O)O)c1cccn1Cc1ccccc1
endpoint: mean survival time, dose: 25.0 mg/kg/injection, schedule: Q04DX002 (ip), vehicle: saline with Tween-80
  T/C: 93 % of control
endpoint: mean survival time, dose: 50.0 mg/kg/injection, schedule: Q04DX002 (ip), vehicle: saline with Tween-80
  T/C: 101 % of control
endpoint: mean survival time, dose: 100.0 mg/kg/injection, schedule: Q04DX002 (ip), vehicle: saline with Tween-80
  T/C: 86 % of control and 87 % of control

## O=C(c1ccccc1)C(Br)C(Br)c1ccccc1 (configuration not stated)
[8]
  T/C: 93 % of control
[9]
  T/C: 94 % of control
endpoint: mean survival time, dose: 200.0 mg/kg/injection, schedule: Q01DX001 (ip), vehicle: saline with Tween-80
  T/C: 91 % of control
[10]
  T/C: 106 % of control
[11]
  T/C: 90 % of control
endpoint: mean survival time, dose: 400.0 mg/kg/injection, schedule: Q01DX001 (ip), vehicle: saline with Tween-80
  T/C: 94 % of control
[12]
  T/C: 95 % of control
[13]
  T/C: 92 % of control

## COc1cc2c(cc1OC)C1CCN3C(=O)CCC3[N+]1(C)CC2 (configuration not stated)
[6]
  T/C: 93 % of control
[7]
  T/C: 98 % of control
[4]
  T/C: 98 % of control
[5]
  T/C: 96 % of control

## CCc1c(CNc2ccc(C(=O)NC(CC(=O)O)C(=O)O)cc2)ccc2nc(N)nc(N)c12 (configuration not stated)
endpoint: mean survival time, dose: 0.25 mg/kg/injection, schedule: Q01DX001 (ip), vehicle: saline
  T/C: 105 % of control
endpoint: mean survival time, dose: 0.5 mg/kg/injection, schedule: Q01DX001 (ip), vehicle: saline
  T/C: 114 % of control
endpoint: mean survival time, dose: 1.0 mg/kg/injection, schedule: Q01DX001 (ip), vehicle: saline
  T/C: 119 % of control
endpoint: mean survival time, dose: 4.0 mg/kg/injection, schedule: Q01DX001 (ip), vehicle: saline
  T/C: 163 % of control

## C=CCNC(=S)NCC
[8]
  T/C: 98 % of control
endpoint: mean survival time, dose: 100.0 mg/kg/injection, schedule: Q04DX003 (ip), vehicle: saline sonified
  T/C: 101 % of control
[10]
  T/C: 101 % of control
endpoint: mean survival time, dose: 200.0 mg/kg/injection, schedule: Q04DX003 (ip), vehicle: saline sonified
  T/C: 97 % of control
[12]
  T/C: 102 % of control
endpoint: mean survival time, dose: 400.0 mg/kg/injection, schedule: Q04DX003 (ip), vehicle: saline sonified
  T/C: 101 % of control

## C[n+]1ccc2c(Br)cccc2c1
[14]
  T/C: 101 % of control

## CCC(C)C(C)OC(=O)c1cc([N+](=O)[O-])cc([N+](=O)[O-])c1 (configuration not stated)
[8]
  T/C: 105 % of control
[9]
  T/C: 92 % of control
[10]
  T/C: 104 % of control
[11]
  T/C: 97 % of control
[12]
  T/C: 90 % of control
[13]
  T/C: 103 % of control

## Cc1ccc(Cl)cc1[NH-].Cc1ccc(Cl)cc1[NH-].[Cl][Pt+2][Cl]
endpoint: mean survival time, dose: 25.0 mg/kg/injection, schedule: Q04DX003 (ip), vehicle: saline with Tween-80
  T/C: 100 % of control
endpoint: mean survival time, dose: 50.0 mg/kg/injection, schedule: Q04DX003 (ip), vehicle: saline with Tween-80
  T/C: 95 % of control
[9]
  T/C: 97 % of control
[11]
  T/C: 101 % of control

## C[Si](C)(C)NP(=O)(Oc1ccc([N+](=O)[O-])cc1)Oc1ccc([N+](=O)[O-])cc1
endpoint: mean survival time, dose: 15.6 mg/kg/injection, schedule: Q01DX001 (ip), vehicle: other
  T/C: 110 % of control
endpoint: mean survival time, dose: 31.3 mg/kg/injection, schedule: Q01DX001 (ip), vehicle: other
  T/C: 97 % of control
endpoint: mean survival time, dose: 62.5 mg/kg/injection, schedule: Q01DX001 (ip), vehicle: other
  T/C: 102 % of control and 108 % of control
endpoint: mean survival time, dose: 125.0 mg/kg/injection, schedule: Q01DX001 (ip), vehicle: other
  T/C: 87 % of control and 94 % of control

## O=C(Nc1ccc2c(c1)OCO2)O/N=C1\C(=O)Nc2ccccc21
[9]
  T/C: 100 % of control
[11]
  T/C: 86 % of control

## CNC(=S)NC1CCCCC1
[9]
  T/C: 97 % of control
[11]
  T/C: 100 % of control
[13]
  T/C: 89 % of control

## CCN(CC)CCN1CC2CCCCC2C1 (configuration not stated)
endpoint: mean survival time, dose: 25.0 mg/kg/injection, schedule: Q01DX009 (ip), vehicle: saline with Tween-80
  T/C: 100 % of control
endpoint: mean survival time, dose: 50.0 mg/kg/injection, schedule: Q01DX009 (ip), vehicle: saline with Tween-80
  T/C: 100 % of control
[8]
  T/C: 98 % of control and 102 % of control

## C1CCC2[N-]CCCC2C1.C1CCC2[N-]CCCC2C1.[Br][Pt+2][Br] (configuration not stated)
endpoint: median survival time, dose: 3.12 mg/kg/injection, schedule: Q04DX003 (ip), vehicle: saline
  T/C: 105 % of control
endpoint: median survival time, dose: 6.25 mg/kg/injection, schedule: Q04DX003 (ip), vehicle: saline
  T/C: 117 % of control
endpoint: median survival time, dose: 12.5 mg/kg/injection, schedule: Q04DX003 (ip), vehicle: saline
  T/C: 114 % of control
endpoint: median survival time, dose: 25.0 mg/kg/injection, schedule: Q04DX003 (ip), vehicle: saline
  T/C: 103 % of control
endpoint: median survival time, dose: 50.0 mg/kg/injection, schedule: Q04DX003 (ip), vehicle: saline
  T/C: 102 % of control
endpoint: median survival time, dose: 100.0 mg/kg/injection, schedule: Q04DX003 (ip), vehicle: saline
  T/C: 104 % of control
endpoint: median survival time, dose: 200.0 mg/kg/injection, schedule: Q04DX003 (ip), vehicle: saline
  T/C: 95 % of control

## COC(=N)Cc1ccc(OC)c(OC)c1
[9]
  T/C: 102 % of control
[11]
  T/C: 96 % of control
[13]
  T/C: 94 % of control

## COc1ccc2c(c1O)CNCC2c1ccc(O)c(C)c1 (configuration not stated)
[14]
  T/C: 98 % of control

## O=C(C[n+]1cccc(C(=O)Nc2ccccc2)c1)NCc1ccccc1
[4]
  T/C: 100 % of control
[5]
  T/C: 96 % of control
endpoint: mean survival time, dose: 400.0 mg/kg/injection, schedule: Q04DX003 (ip), vehicle: saline
  T/C: 96 % of control

## Cc1cn(C2CC3O[P@@](=S)(Nc4ccccc4)OCC3O2)c(=O)[nH]c1=O (some centres not stated)
endpoint: median survival time, dose: 11.5 mg/kg/injection, schedule: Q01DX005 (ip), vehicle: saline with Tween-80
  T/C: 108 % of control
endpoint: median survival time, dose: 23.0 mg/kg/injection, schedule: Q01DX005 (ip), vehicle: saline with Tween-80
  T/C: 103 % of control
endpoint: median survival time, dose: 46.0 mg/kg/injection, schedule: Q01DX005 (ip), vehicle: saline with Tween-80
  T/C: 98 % of control

## CO[C@@]12[C@@H]3N[C@@H]3CN1C1=C(C(=O)C(N(C)c3ccc(O)cc3)=C(C)C1=O)[C@@H]2COC(N)=O
endpoint: median survival time, dose: 3.0 mg/kg/injection, schedule: Q01DX001 (ip), vehicle: distilled water + Tween-80
  T/C: 100 % of control
endpoint: median survival time, dose: 6.0 mg/kg/injection, schedule: Q01DX001 (ip), vehicle: distilled water + Tween-80
  T/C: 121 % of control
endpoint: median survival time, dose: 12.0 mg/kg/injection, schedule: Q01DX001 (ip), vehicle: distilled water + Tween-80
  T/C: 117 % of control and 102 % of control
endpoint: median survival time, dose: 24.0 mg/kg/injection, schedule: Q01DX001 (ip), vehicle: distilled water + Tween-80
  T/C: 113 % of control

## Cc1ccc(NC(=O)Nc2ccccc2F)cc1NC(=O)Nc1ccccc1F
[9]
  T/C: 100 % of control
[11]
  T/C: 104 % of control
[13]
  T/C: 100 % of control

## CCCCCCCCCCCCCCCC(=O)N(CCCN)C(C)(C)CCC(C)(C)N(CCCN)C(=O)CCCCCCCCCCCCCCC
endpoint: mean survival time, dose: 1.56 mg/kg/injection, schedule: Q01DX009 (ip), vehicle: water
  T/C: 106 % of control
endpoint: mean survival time, dose: 3.13 mg/kg/injection, schedule: Q01DX009 (ip), vehicle: water
  T/C: 98 % of control
endpoint: mean survival time, dose: 6.25 mg/kg/injection, schedule: Q01DX009 (ip), vehicle: water
  T/C: 104 % of control
endpoint: mean survival time, dose: 12.5 mg/kg/injection, schedule: Q01DX009 (ip), vehicle: water
  T/C: 102 % of control
endpoint: mean survival time, dose: 25.0 mg/kg/injection, schedule: Q01DX009 (ip), vehicle: water
  T/C: 89 % of control and 95 % of control

## O=[N+]([O-])c1c[n+]([O-])ccc1Cl
endpoint: mean survival time, dose: 5.0 mg/kg/injection, schedule: Q01DX001 (ip), vehicle: saline
  T/C: 101 % of control
endpoint: mean survival time, dose: 10.0 mg/kg/injection, schedule: Q01DX001 (ip), vehicle: saline
  T/C: 103 % of control
